Reference: ChEMBL document CHEMBL1138721, “Development of an efficient and selective radioligand for bradykinin B1 receptor occupancy studies” (Bioorg Med Chem Lett, 2004)

Legend:
[1] = Partition coefficient (logP); format: physicochemical; details: octanol/water
Homo sapiens [2] = species on record: Homo sapiens; assay: Binding affinity to human plasma protein; format: cell-free
B1 bradykinin receptor [3] = target: T1, B1 bradykinin receptor (Homo sapiens, UniProt P46663); assay: Binding affinity to human Bradykinin receptor B1 over-expressed in transgenic rats was determined by ex vivo receptor occupancy assay
T1 sequence (P46663 whole entry): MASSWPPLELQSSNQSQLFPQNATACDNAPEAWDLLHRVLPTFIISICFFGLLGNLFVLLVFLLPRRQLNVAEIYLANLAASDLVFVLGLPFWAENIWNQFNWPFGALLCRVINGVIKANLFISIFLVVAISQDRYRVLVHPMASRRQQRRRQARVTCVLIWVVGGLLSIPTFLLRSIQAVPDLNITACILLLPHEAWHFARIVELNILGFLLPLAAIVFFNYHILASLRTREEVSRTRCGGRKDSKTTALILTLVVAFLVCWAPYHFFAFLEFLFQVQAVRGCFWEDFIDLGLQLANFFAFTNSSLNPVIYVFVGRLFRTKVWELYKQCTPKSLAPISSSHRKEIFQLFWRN

B2 bradykinin receptor [4] = target: T2, B2 bradykinin receptor (Homo sapiens, UniProt P30411); assay: Binding affinity to human Bradykinin receptor B2 over-expressed in transgenic rats was determined by ex vivo receptor occupancy assay
T2 sequence (P30411 whole entry): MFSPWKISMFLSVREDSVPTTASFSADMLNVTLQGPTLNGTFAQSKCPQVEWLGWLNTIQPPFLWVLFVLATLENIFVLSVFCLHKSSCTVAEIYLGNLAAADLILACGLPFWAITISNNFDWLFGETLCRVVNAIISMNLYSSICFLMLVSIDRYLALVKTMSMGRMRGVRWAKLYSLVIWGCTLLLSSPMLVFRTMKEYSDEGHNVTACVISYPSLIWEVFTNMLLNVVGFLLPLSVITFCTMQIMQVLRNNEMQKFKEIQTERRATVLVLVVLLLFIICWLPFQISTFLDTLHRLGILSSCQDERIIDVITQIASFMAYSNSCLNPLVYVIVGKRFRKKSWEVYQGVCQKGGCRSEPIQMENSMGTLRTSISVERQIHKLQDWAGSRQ

B1 bradykinin receptor [5] = target: T1, B1 bradykinin receptor; assay: Binding affinity (radioligand) to human Bradykinin receptor B1 over-expressed in transgenic rats was determined by ex vivo receptor occupancy assay; value ranges from 0.1-0.2 nM
Homo sapiens [6] = species on record: Homo sapiens; assay: Binding affinity of the [35S]- radiolabeled compound to human plasma protein; format: cell-free
B1 bradykinin receptor [7] = target: T3, B1 bradykinin receptor (Rattus norvegicus, UniProt P97583); assay: Binding affinity of the [35S]- radiolabeled compound to rat Bradykinin receptor B1
T3 sequence (P97583 whole entry): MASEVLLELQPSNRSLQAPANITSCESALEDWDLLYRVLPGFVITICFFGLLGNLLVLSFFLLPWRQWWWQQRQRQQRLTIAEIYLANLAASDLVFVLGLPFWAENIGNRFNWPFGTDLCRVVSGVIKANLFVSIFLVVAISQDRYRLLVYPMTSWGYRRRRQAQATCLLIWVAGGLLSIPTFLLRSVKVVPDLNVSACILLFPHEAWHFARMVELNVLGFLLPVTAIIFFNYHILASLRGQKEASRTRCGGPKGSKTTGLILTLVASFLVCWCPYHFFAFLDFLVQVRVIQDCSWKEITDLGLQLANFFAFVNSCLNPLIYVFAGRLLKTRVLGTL

B1 bradykinin receptor [8] = target: T4, B1 bradykinin receptor (Canis lupus familiaris, UniProt Q9BDQ5); assay: Binding affinity of the [35S]- radiolabeled compound to dog Bradykinin receptor B1
T4 sequence (Q9BDQ5 whole entry): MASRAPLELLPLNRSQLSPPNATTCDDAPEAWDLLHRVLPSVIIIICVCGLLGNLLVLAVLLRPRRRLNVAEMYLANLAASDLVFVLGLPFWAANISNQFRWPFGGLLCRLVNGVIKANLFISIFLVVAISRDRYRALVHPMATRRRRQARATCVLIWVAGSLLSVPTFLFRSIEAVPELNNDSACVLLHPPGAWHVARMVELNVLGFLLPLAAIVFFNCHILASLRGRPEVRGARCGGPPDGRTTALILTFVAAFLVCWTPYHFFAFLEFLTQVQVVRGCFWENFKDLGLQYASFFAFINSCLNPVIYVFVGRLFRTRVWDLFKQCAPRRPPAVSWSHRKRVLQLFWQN

B1 bradykinin receptor [9] = target: T1, B1 bradykinin receptor; assay: Equilibrium dissociation constant of the [35S]- radiolabeled compound against human Bradykinin receptor B1 expressed in CHO membranes was determined; format: cell membranes
[10] = Half-life of the [35S]- radiolabeled compound; format: ADME
B2 bradykinin receptor [11] = target: T2, B2 bradykinin receptor; assay: Binding affinity of the [35S]- radiolabeled compound to human Bradykinin receptor B2 over-expressed in transgenic rats was determined by ex vivo receptor occupancy assay
B1 bradykinin receptor [12] = target: T1, B1 bradykinin receptor; assay: Antagonist activity against human Bradykinin receptor B1 was determined in a fluorescence imaging plate reader assay; format: functional
B1 bradykinin receptor [13] = target: T5, B1 bradykinin receptor (Oryctolagus cuniculus, UniProt P48748); assay: Binding affinity of the [35S]- radiolabeled compound to rabbit Bradykinin receptor B1
T5 sequence (P48748 whole entry): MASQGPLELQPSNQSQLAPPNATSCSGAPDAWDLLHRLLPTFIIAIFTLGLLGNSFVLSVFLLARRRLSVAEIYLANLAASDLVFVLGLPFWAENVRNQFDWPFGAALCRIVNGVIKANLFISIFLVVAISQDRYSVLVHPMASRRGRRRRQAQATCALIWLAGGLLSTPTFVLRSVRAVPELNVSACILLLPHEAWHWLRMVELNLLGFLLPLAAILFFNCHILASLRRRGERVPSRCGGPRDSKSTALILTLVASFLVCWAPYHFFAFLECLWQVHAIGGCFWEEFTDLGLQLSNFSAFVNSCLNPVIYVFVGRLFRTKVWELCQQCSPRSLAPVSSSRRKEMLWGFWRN

B1 bradykinin receptor [14] = target: T1, B1 bradykinin receptor; assay: Binding affinity of the [35S]- radiolabeled compound to human Bradykinin receptor B1 over-expressed in transgenic rats was determined by ex vivo receptor occupancy assay
[15] = target: T6, B1 bradykinin receptor (Homo sapiens) (UniProt P46663); assay: Maximum specific binding of the [35S]- radiolabeled compound to human Bradykinin receptor B1 expressed in CHO membranes was determined; format: cell membranes
T6 sequence (whole entry): T1 sequence (P46663 whole entry)

logP [1]	PPB (Homo sapiens [2]) [%]	Ki (B1 bradykinin receptor [3]) [nM]	Ki (B2 bradykinin receptor [4]) [nM]	Structure (SMILES)	also measured
3.41		0.07	> 10000	O=C(C[C@@H]1C(=O)Nc2ccc(Cl)cc2N1S(=O)(=O)c1ccc2ccccc2c1)NCCc1ccc(-c2ncc[nH]2)cc1	
3.32	98.5	0.07	> 10000	O=C(C[C@@H]1C(=O)Nc2ccccc2N1S(=O)(=O)c1ccc2ccccc2c1)NCCc1ccc(-c2ncc[nH]2)cc1	
0.25				O=C(C[C@@H]1C(=O)Nc2ccccc2N1S(=O)(=O)c1ccc2ccccc2c1)NCCc1ccc(C2=NCCN2)cc1	PPB (Homo sapiens [6]): 79.4%; Ki (B1 bradykinin receptor [7]): 34 nM; Ki (B1 bradykinin receptor [8]): 0.5 nM; Kd (B1 bradykinin receptor [9]): 0.015 nM; half-life [10]: ~3.33 h; Ki (B2 bradykinin receptor [11]): > 10000 nM; IC50 (B1 bradykinin receptor [12]): 0.04 nM; Ki (B1 bradykinin receptor [13]): 0.05 nM; Ki (B1 bradykinin receptor [14]): 0.02 nM; Bmax (fM mg-1 protein) [15]: 480

Continued, compound first:

Structure (SMILES)	logP [1]	PPB (Homo sapiens [2]) [%]	Ki (B1 bradykinin receptor [3]) [nM]	Ki (B2 bradykinin receptor [4]) [nM]	also measured
O=C(C[C@@H]1C(=O)Nc2ccccc2N1S(=O)(=O)c1ccc(Cl)c(Cl)c1)NCCc1ccc(-n2cnnc2)cc1	2.35	82.5	3.73	> 10000	
O=C(C[C@@H]1C(=O)Nc2ccccc2N1S(=O)(=O)c1ccc(Cl)c(Cl)c1)NCCc1ccc(-n2ccnc2)cc1	3.35		1.09	> 10000	
[3H][C@@]1(C(=O)NCC(=O)N[C@@H](Cc2ccccc2)C(=O)N[C@@H](CO)C(=O)N2CCC[C@H]2C(=O)N[C@@H](CC(C)C)C(=O)O)CCCN1C(=O)[C@]1([3H])CCCN1C(=O)[C@H](CCCN=C(N)N)NC(=O)[C@@H](N)CCCCN					Ki (B1 bradykinin receptor [5]): < 0.2 nM
CN1CCN=C1c1ccc(CCNC(=O)C[C@@H]2C(=O)Nc3ccc(Cl)cc3N2S(=O)(=O)c2ccc3ccccc3c2)cc1	0.53	91.7	0.02	> 10000	
O=C(C[C@@H]1C(=O)Nc2ccc(Cl)cc2N1S(=O)(=O)c1ccc2ccccc2c1)NCCc1ccc(C2=NCCN2)cc1	1	93.6	0.01	> 10000	
O=C(C[C@@H]1C(=O)Nc2ccccc2N1S(=O)(=O)c1ccc(Cl)c(Cl)c1)NCCc1ccc(C2=NCCN2)cc1	0.48	36	0.03	> 10000	
